From PubChem BioAssay AID248 (DTP/NCI, 2004)
Where “and” joins values, the source holds several entries; their conditions need not be identical. Equal entries are not always repeated. Toxic doses and inconclusive results are not listed. Cut-off read from the data, not from the text of the source: active = T/C of 150% or more; inactive = T/C below 125%.

Test system: L1210 leukemia ip in BDF1 mice, survival T/C
Assay: NCI In Vivo Anticancer Drug Screen. Data for tumor model L1210 Leukemia (intraperitoneal) in B6D2F1 (BDF1) mice
Settings: endpoint: mean survival time, higher = longer survival
Method in brief: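 Value reflects the ratio of survival in compound-treated mice to survival in vehicle-treated controls, with both groups carrying the same transplanted tumor.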

[1] = dose: 50.0 mg/kg/injection, schedule: Q01DX009 (ip), vehicle: saline
[2] = dose: 100.0 mg/kg/injection, schedule: Q01DX001 (ip), vehicle: saline
[3] = dose: 100.0 mg/kg/injection, schedule: Q01DX009 (ip), vehicle: saline
[4] = dose: 100.0 mg/kg/injection, schedule: Q04DX003 (ip), vehicle: saline
[5] = dose: 200.0 mg/kg/injection, schedule: Q01DX001 (ip), vehicle: saline
[6] = dose: 200.0 mg/kg/injection, schedule: Q01DX009 (ip), vehicle: saline
[7] = dose: 200.0 mg/kg/injection, schedule: Q04DX003 (ip), vehicle: saline
[8] = dose: 100.0 mg/kg/injection, schedule: Q01DX009 (ip), vehicle: saline with Tween-80
[9] = dose: 100.0 mg/kg/injection, schedule: Q04DX003 (ip), vehicle: saline with Tween-80
[10] = dose: 200.0 mg/kg/injection, schedule: Q01DX009 (ip), vehicle: saline with Tween-80
[11] = dose: 200.0 mg/kg/injection, schedule: Q04DX003 (ip), vehicle: saline with Tween-80
[12] = dose: 400.0 mg/kg/injection, schedule: Q01DX009 (ip), vehicle: saline with Tween-80
[13] = dose: 400.0 mg/kg/injection, schedule: Q04DX003 (ip), vehicle: saline with Tween-80
[14] = dose: 100.0 mg/kg/injection, schedule: Q01DX001 (ip), vehicle: Klucel (hydroxypropylcellulose) (HPC)
[15] = dose: 200.0 mg/kg/injection, schedule: Q01DX001 (ip), vehicle: Klucel (hydroxypropylcellulose) (HPC)
[16] = dose: 400.0 mg/kg/injection, schedule: Q04DX003 (ip), vehicle: saline
[17] = dose: 100.0 mg/kg/injection, schedule: Q04DX003 (ip), vehicle: Klucel (hydroxypropylcellulose) (HPC)
[18] = dose: 200.0 mg/kg/injection, schedule: Q04DX003 (ip), vehicle: Klucel (hydroxypropylcellulose) (HPC)
[19] = dose: 400.0 mg/kg/injection, schedule: Q04DX003 (ip), vehicle: Klucel (hydroxypropylcellulose) (HPC)
[20] = dose: 25.0 mg/kg/injection, schedule: Q01DX009 (ip), vehicle: saline with Tween-80
[21] = dose: 100.0 mg/kg/injection, schedule: Q01DX009 (ip), vehicle: Klucel (hydroxypropylcellulose) (HPC)
[22] = dose: 200.0 mg/kg/injection, schedule: Q01DX009 (ip), vehicle: Klucel (hydroxypropylcellulose) (HPC)
[23] = dose: 400.0 mg/kg/injection, schedule: Q01DX009 (ip), vehicle: Klucel (hydroxypropylcellulose) (HPC)
[24] = dose: 400.0 mg/kg/injection, schedule: Q01DX001 (ip), vehicle: Klucel (hydroxypropylcellulose) (HPC)

Measured: T/C

Nc1nc2nc[nH]c2c(N)c1Br (tested in a mixture with another compound)
inactive: [1] 95 % of control | dose: 50.0 mg/kg/injection, schedule: Q04DX003 (ip), vehicle: saline 96 % of control | [2] 100 % of control | [3] 92 % of control | [4] 94 % of control | [5] 97 % of control | [6] 114 % of control | [7] 105 % of control

O=[N+]([O-])c1cccnc1Oc1cc(Cl)c(Cl)cc1Cl
inactive: [8] 107 % of control | [9] 102 % of control | [10] 107 % of control | [11] 93 % of control | [12] 100 % of control | [13] 91 % of control

CCOC(=O)/C=C\n1c(=O)cc(C)c2cc3c(C)cc(=O)n(C)c3cc21
inactive: dose: 50.0 mg/kg/injection, schedule: Q01DX001 (ip), vehicle: Klucel (hydroxypropylcellulose) (HPC) 99 % of control | [14] 87 % of control | [15] 92 % of control

O=C1CC=C(Nc2ccc(Br)cc2)C(=O)O1
inactive: [4] 106 % of control | [7] 108 % of control | [16] 108 % of control

CCOC(=O)c1cnc(C)nc1NCc1ccco1
inactive: [17] 103 % of control | [18] 95 % of control | [19] 98 % of control

N#Cc1c(F)c(F)c(C(F)(F)F)c(F)c1F
inactive: dose: 6.0 mg/kg/injection, schedule: Q01DX009 (ip), vehicle: saline with Tween-80 103 % of control | dose: 12.0 mg/kg/injection, schedule: Q01DX009 (ip), vehicle: saline with Tween-80 104 % of control | [20] 93 % of control | dose: 50.0 mg/kg/injection, schedule: Q01DX009 (ip), vehicle: other 103 % of control

CC(C)(C)C1COP(=S)(c2ccccc2)OC1 (stereo not drawn)
inactive: [17] 96 % of control

O=C(Nc1cc(Cl)c(Oc2ccc(Cl)cc2)cc1S(=O)(=O)O)Nc1cccc(Cl)c1Cl
inactive: dose: 50.0 mg/kg/injection, schedule: Q01DX009 (ip), vehicle: Klucel (hydroxypropylcellulose) (HPC) 109 % of control | [21] 104 % of control

COC(=O)N/N=C/c1cccnc1
inactive: [21] 103 % of control | [22] 103 % of control | [23] 111 % of control

[O-][n+]1c2ccccc2nc2cc(Cl)ccc21
inactive: [17] 107 % of control | [18] 100 % of control | [19] 96 % of control

O=[N+]([O-])c1ccc(N/N=C2/CCSc3ccccc32)cc1
inactive: dose: 100.0 mg/kg/injection, schedule: Q04DX003 (ip), vehicle: acetone 100 % of control | dose: 200.0 mg/kg/injection, schedule: Q04DX003 (ip), vehicle: acetone 99 % of control | dose: 400.0 mg/kg/injection, schedule: Q04DX003 (ip), vehicle: acetone 88 % of control

O=[N+]([O-])c1ccc2cnn(CSP(=S)(c3ccccc3)c3ccccc3)c2c1
inactive: dose: 100.0 mg/kg/injection, schedule: Q01DX001 (ip), vehicle: other 93 % of control | dose: 200.0 mg/kg/injection, schedule: Q01DX001 (ip), vehicle: other 101 % of control | dose: 400.0 mg/kg/injection, schedule: Q01DX001 (ip), vehicle: other 101 % of control

COc1ccc(-c2cc3c(OC)ccc(OC)c3[nH]2)cc1OC
inactive: dose: 25.0 mg/kg/injection, schedule: Q04DX002 (ip), vehicle: Klucel (hydroxypropylcellulose) (HPC) 96 % of control | dose: 50.0 mg/kg/injection, schedule: Q04DX002 (ip), vehicle: Klucel (hydroxypropylcellulose) (HPC) 96 % of control and 99 % of control | dose: 100.0 mg/kg/injection, schedule: Q04DX002 (ip), vehicle: Klucel (hydroxypropylcellulose) (HPC) 91 % of control | dose: 200.0 mg/kg/injection, schedule: Q04DX002 (ip), vehicle: Klucel (hydroxypropylcellulose) (HPC) 93 % of control

O=C(Nc1ccc(Cl)cc1[N+](=O)[O-])Oc1ccc(-c2ccccc2)cc1
inactive: dose: 100.0 mg/kg/injection, schedule: Q01DX001 (ip), vehicle: saline with Tween-80 97 % of control | [8] 94 % of control and 103 % of control | dose: 100.0 mg/kg/injection, schedule: Q04DX002 (ip), vehicle: saline with Tween-80 97 % of control and 91 % of control | [9] 108 % of control | dose: 200.0 mg/kg/injection, schedule: Q01DX001 (ip), vehicle: saline with Tween-80 100 % of control | [10] 92 % of control | dose: 200.0 mg/kg/injection, schedule: Q04DX002 (ip), vehicle: saline with Tween-80 102 % of control and 90 % of control | [11] 107 % of control | dose: 400.0 mg/kg/injection, schedule: Q01DX001 (ip), vehicle: saline with Tween-80 89 % of control | [12] 106 % of control and 92 % of control | dose: 400.0 mg/kg/injection, schedule: Q04DX002 (ip), vehicle: saline with Tween-80 103 % of control and 91 % of control | [13] 95 % of control

Cc1cccc(N=C(N)N=C(N)N)c1
inactive: [9] 102 % of control | [11] 88 % of control

CO/N=C/c1ccc([N+](=O)[O-])cc1
inactive: [14] 96 % of control | [15] 95 % of control | [24] 98 % of control

C/C=C/C(=O)Nc1cccc(C)c1C
inactive: [21] 93 % of control and 95 % of control | [22] 100 % of control | [23] 92 % of control

O=C([O-])C(=O)[O-].[Cu+2].[OH2+]CC[N-]CC[OH2+].[OH2+]CC[N-]CC[OH2+]
inactive: dose: 5.0 mg/kg/injection, schedule: Q01DX001 (ip), vehicle: saline 97 % of control | dose: 10.0 mg/kg/injection, schedule: Q01DX001 (ip), vehicle: saline 92 % of control | dose: 20.0 mg/kg/injection, schedule: Q01DX001 (ip), vehicle: saline 103 % of control

CCN1C(=S)N(C)C(=O)/C1=C\N(C(C)=O)c1ccccc1
inactive: dose: 50.0 mg/kg/injection, schedule: Q04DX003 (ip), vehicle: Klucel (hydroxypropylcellulose) (HPC) 103 % of control | [14] 104 % of control | [17] 112 % of control | [15] 104 % of control | [18] 100 % of control | [24] 102 % of control

C1CCC(=NN=C2CCCCC2)CC1
inactive: dose: 100.0 mg/kg/injection, schedule: Q01DX009 (sc), vehicle: olive oil, sesame oil, peanut oil 103 % of control | dose: 100.0 mg/kg/injection, schedule: Q04DX003 (sc), vehicle: olive oil, sesame oil, peanut oil 100 % of control | dose: 200.0 mg/kg/injection, schedule: Q01DX009 (sc), vehicle: olive oil, sesame oil, peanut oil 100 % of control | dose: 200.0 mg/kg/injection, schedule: Q04DX003 (sc), vehicle: olive oil, sesame oil, peanut oil 106 % of control | dose: 400.0 mg/kg/injection, schedule: Q01DX009 (sc), vehicle: olive oil, sesame oil, peanut oil 101 % of control | dose: 400.0 mg/kg/injection, schedule: Q04DX003 (sc), vehicle: olive oil, sesame oil, peanut oil 105 % of control

CCCCN(CCCC)S(=O)(=O)CCCC
inactive: [4] 91 % of control | [7] 103 % of control | [16] 94 % of control

CC(C)(C)OC(=O)N/N=C/c1ccc2c(c1)OCO2
inactive: [17] 95 % of control | [18] 97 % of control | [19] 97 % of control

O=c1cc(CN2CCN(CCO)CC2)[nH]c(=O)[nH]1
inactive: [4] 101 % of control | [7] 95 % of control | [16] 95 % of control

CCCCCCCC[As](=O)(O)CCCCCCCC
inactive: dose: 50.0 mg/kg/injection, schedule: Q01DX001 (ip), vehicle: saline 101 % of control | [2] 101 % of control | [5] 98 % of control | dose: 400.0 mg/kg/injection, schedule: Q01DX001 (ip), vehicle: saline 107 % of control

Cc1ccc2c(c1)P(O)(=S)c1cc(F)ccc1O2 (stereo not drawn)
inactive: [1] 113 % of control | [3] 103 % of control | [6] 110 % of control

CCCCCc1ccc(C(=O)O)cc1
inactive: [20] 103 % of control | dose: 25.0 mg/kg/injection, schedule: Q04DX003 (ip), vehicle: saline with Tween-80 106 % of control | dose: 50.0 mg/kg/injection, schedule: Q01DX009 (ip), vehicle: saline with Tween-80 98 % of control | dose: 50.0 mg/kg/injection, schedule: Q04DX003 (ip), vehicle: saline with Tween-80 101 % of control | [8] 97 % of control | [9] 98 % of control and 102 % of control
